In patent US9216173B2, “2-Pyridyl carboxamide-containing spleen tyrosine kinase (SYK) inhibitors” (Merck Sharp & Dohme Corp., priority 2011, dated 2015):

Test system: PGD2
Experiment: not given
Conditions: dosed intranasally, phase I/II, allergic rhinitis; cited from earlier work

Row | SMILES | PGD2 level | clinical safety
1 | Oc1cccc(Nc2ncc(F)c(Nc3cccc(O)c3)n2)c1 [Example R112] | statistically significant decrease | safe across a range of indicators

Test system: not given
Experiment: not given
Conditions: phase II clinical trial, allergic rhinitis; cited from earlier work

Row | SMILES | efficacy versus placebo
2 | Oc1cccc(Nc2ncc(F)c(Nc3cccc(O)c3)n2)c1 [Example R112] | lack of efficacy

Target: T1, recombinant human GST-SYK (Homo sapiens, UniProt P43405)
T1 construct: purchased Carna Biosciences 08-176
Experiment: Homogeneous Time-Resolved Fluorescence (HTRF) assay for the recombinant human Syk enzyme
Assay type: biochemical
Conditions: GST-hSYK 5 pM, ATP 25 μM, 10-dose titration 10 μM to 0.508 nM; read-out: IC50
How it was run: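 GST-hSYK fusion phosphorylates a peptide for 45 min at room temperature. Quenched with EDTA buffer containing 2 nM Eu-anti-phosphotyrosine antibody and 70 nM SA-APC. HTRF signal read after 30 min.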

Row | SMILES | IC50 [nM]
3 | Cc1cc(C)nc(Nc2cc(N)cnc2C(N)=O)c1 [Example 9, 5-amino-3-[(4,6-dimethylpyridin-2-yl)amino]pyridine-2-carboxamide] | 2900

Same assay, conditions: GST-hSYK 5 pM, ATP 25 μM, 10-dose titration 10 μM to 0.508 nM; read-out: rhSYK Activity (IC50 rating)

Row | SMILES | IC50 [nM]
4 | Cc1cc(OC(C)C)cc(Nc2cc(N[C@@H]3CCCC[C@@H]3N)cnc2C(N)=O)n1 [Example 5.2, 5-{[(1R,2S)-2-aminocyclohexyl]amino}-3-{[6-methyl-4-(1-methylethoxy)pyridin-2-yl]amino}pyridine-2-carboxamide] | < 10
5 | Cc1cc(OCc2ccccc2)cc(Nc2cc(N[C@@H]3CCCC[C@@H]3N)cnc2C(N)=O)n1 [Example 5.3, 5-{[(1R,2S)-2-aminocyclohexyl]amino}-3-{[4-(benzyloxy)-6-methylpyridin-2-yl]amino}pyridine-2-carboxamide] | < 10
6 | CC(=O)NCC(N)CNc1cnc(C(N)=O)c(Nc2cc(C)cc(C)n2)c1 (centres unmarked) [Example 6.1, 5-{[3-(acetylamino)-2-aminopropyl]amino}-3-[(4,6-dimethylpyridin-2-yl)amino]pyridine-2-carboxamide] | 10 to 100
7 | Cc1nc(Nc2cc(N[C@@H]3CCCC[C@@H]3N)cnc2C(N)=O)ccc1C(N)=O [Example 7, 5-{[(1R,2S)-2-aminocyclohexyl]amino}-3-[(5-carbamoyl-6-methylpyridin-2-yl)amino]pyridine-2-carboxamide] | < 10
8 | NC(=O)c1ncc(N[C@@H]2CCCC[C@@H]2N)cc1Nc1cccc(CN2CCNCC2)n1 [Example 8, 5-{[(1R,2S)-2-aminocyclohexyl]amino}-3-{[6-(piperazin-1-ylmethyl)pyridin-2-yl]amino}pyridine-2-carboxamide] | 100 to 1000
9 | Cc1cc(C)nc(Nc2cc(N)cnc2C(N)=O)c1 [Example 9, 5-amino-3-[(4,6-dimethylpyridin-2-yl)amino]pyridine-2-carboxamide] | 1000 to 10000
10 | Cc1cc(C)nc(Nc2cc(NC(=O)CN)cnc2C(N)=O)c1 [Example 10, 3-[(4,6-dimethylpyridin-2-yl)amino]-5-(glycylamino)pyridine-2-carboxamide] | 100 to 1000
11 | Cc1cc(O)cc(Nc2cc(N[C@@H]3CCCC[C@@H]3N)cnc2C(N)=O)n1 [Example 11, 5-{[(1R,2S)-2-aminocyclohexyl]amino}-3-[(4-hydroxy-6-methylpyridin-2-yl)amino]pyridine-2-carboxamide] | 10 to 100
12 | Cc1cc(C(=O)O)cc(Nc2cc(N[C@@H]3CCCC[C@@H]3N)cnc2C(N)=O)n1 [Example 12, 2-[(5-{[(1R,2S)-2-aminocyclohexyl]amino}-2-carbamoylpyridin-3-yl)amino]-6-methylpyridine-4-carboxylic acid] | 10 to 100
13 | CCc1cccc(Nc2cc(N[C@@H]3CCCC[C@@H]3N)cnc2C(N)=O)n1 [Example 13, 5-{[(1R,2S)-2-aminocyclohexyl]amino}-3-[(6-ethylpyridin-2-yl)amino]pyridine-2-carboxamide] | < 10
14 | Cc1cc(C)nc(Nc2cc(NCCCN)cnc2C(N)=O)c1 [Example 14, 5-[(3-aminopropyl)amino]-3-[(4,6-dimethylpyridin-2-yl)amino]pyridine-2-carboxamide] | 10 to 100
15 | CCNC(=O)Nc1cnc(C(N)=O)c(Nc2cc(C)cc(C)n2)c1 [Example 15, 3-[(4,6-dimethylpyridin-2-yl)amino]-5-[(ethylcarbamoyl)amino]pyridine-2-carboxamide] | 100 to 1000
16 | Cc1nc(Nc2cc(N[C@@H]3CCCC[C@@H]3N)cnc2C(N)=O)ccc1C(=O)O [Example 16, 6-[(5-{[(1R,2S)-2-aminocyclohexyl]amino}-2-carbamoylpyridin-3-yl)amino]-2-methylpyridine-3-carboxylic acid] | < 10
17 | Cc1nc(Nc2cc(N[C@@H]3CCCC[C@@H]3N)cnc2C(N)=O)ccc1C(=O)N(C)C [Example 17, 5-{[(1R,2S)-2-aminocyclohexyl]amino}-3-{[5-(dimethylcarbamoyl)-6-methylpyridin-2-yl]amino}pyridine-2-carboxamide] | 10 to 100
18 | CC1=CCCc2nc(Nc3cc(N[C@@H]4CCCC[C@@H]4N)cnc3C(N)=O)ccc21 [Example 18, 5-{[(1R,2S)-2-aminocyclohexyl]amino}-3-[(5-methyl-7,8-dihydroquinolin-2-yl)amino]pyridine-2-carboxamide] | < 10
19 | Cc1cc(C)nc(Nc2cc(NS(=O)(=O)CCN)cnc2C(N)=O)c1 [Example 19, 5-{[(2-aminoethyl)sulfonyl]amino}-3-[(4,6-dimethylpyridin-2-yl)amino]pyridine-2-carboxamide] | 100 to 1000
